# According to US20250374923A1 (priority 2022, published 2025):
# Values joined by “and” are separate entries in the source; they are usually repeats but may differ in a detail not shown here. Equal values may be shown once. Where a name gives a salt, the structure may show the parent alone.
# How the values were obtained:
# [1] = system: citrus greening
# Description: The treatment delivered 150 mg OTC-HCl per season.
# The treatment delivered 600 mg OTC-HCl per season.
# [2] = system: citrus greening; assay: Example 1 field trial: fruit drop
# Excerpt: (§1) Field trial design. […] Treatments included the application of oxytetracycline (OTC) using Invaio's proprietary injection system into the scion of each tree. The trial was designed as a randomized complete blocking which three treatments were applied to each of four trees within each of six replications at three different treatment dates. […] The OTC is a commercial oxytetracycline product. One injection of OTC was made in each tree for the first two injections timings and two OTC injections were made per tree at the third application timing.
# Fruit drop. Fruit drop was determined for trees of each treatment as the number of fruit on the ground underneath each tree at each of six counting dates, approximately 2 weeks apart, beginning on October 13 and finishing prior to fruit harvest on December 21. Counted fruit were removed from the ground after each counting date. Fruit drop was recorded as an average by date and as an average across all six dates (Table 4).
# [3] = average of six replications; fruit collected December 7
# Excerpt: (§2) Treatments included the application of oxytetracycline (OTC) using Invaio's proprietary injection system into the scion of each tree. The trial was designed as a randomized complete blocking which three treatments were applied to each of four trees within each of six replications at three different treatment dates. […] The OTC is a commercial oxytetracycline product. One injection of OTC was made in each tree for the first two injections timings and two OTC injections were made per tree at the third application timing.
# Fruit was collected from trees of the OTC treatment by replication on December 7 and bulked according to treatment and replication to create individual fruit samples for OTC residue analysis. Similarly, fruit was collected from trees from two replications of nontreated treatments and bulked by replication to create individual fruit samples for OTC residue analysis.
# [4] = system: citrus greening; assay: Example 1 field trial: BRIX analysis of fruit; details: fruit collected December 8
# Excerpt: as §1
# BRIX analysis. Fruit was collected from trees of each treatment by replication on December 8 and bulked according to treatment and replication to create individual fruit samples for BRIX analysis.
# [5] = system: citrus greening; details: average across six replications; harvested December 21
# Excerpt: as §2
# Fruit yield. Fruit yield was determined for trees of each treatment as the total weight (lbs) of fruit picked (harvested) from each tree on December 21. Fruit yield was recorded as an average by replication and as an average across all six replications (Table 3).
SMILES,yield increase over water ([1]; 150 mg OTC-HCl per season (FIG. 30)),yield increase over the nontreated controls ([1]; 600 mg OTC-HCl per season (FIG. 31)),"Fruit drop (number), treatment average ([2]; average across replications and dates)","Fruit drop (number), rep average across dates ([2]; average of six counting dates, by replication)","Fruit drop (number) ([2]; counting date 8-Dec, by replication)","Fruit drop (number) ([2]; counting date 9-Nov, by replication)","Fruit drop (number) ([2]; counting date 13-Oct, by replication)","Fruit drop (number) ([2]; counting date 21-Dec, by replication)","Fruit drop (number) ([2]; counting date 24-Nov, by replication)","Fruit drop (number) ([2]; counting date 28-Oct, by replication)","OTC residue in fruit, treatment average [3]","Brix, treatment average ([4]; average of six replications)","Brix ([4]; by replication, OTC 1.58 mg/mL, 60 ml scion injections)","Fruit yield (lbs per tree), treatment average [5]"
"CN(C)[C@@H]1C(O)=C(C(N)=O)C(=O)[C@@]2(O)C(O)=C3C(=O)c4c(O)cccc4[C@@](C)(O)[C@H]3[C@H](O)[C@@H]12 [OTC-HCl, oxytetracycline hydrochloride]",about 74%,~53%,,,,,,,,,,,,
"CN(C)[C@@H]1C(O)=C(C(N)=O)C(=O)[C@@]2(O)C(O)=C3C(=O)c4c(O)cccc4[C@@](C)(O)[C@H]3[C@H](O)[C@@H]12 [OTC, oxytetracycline]",,,17.8 number,20.9 number and 20.5 number and 16.0 number and 17.1 number and 14.5 number and 18.0 number,19.0 number and 13.3 number and 14.0 number and 12.3 number and 15.0 number and 22.8 number,31.5 number and 20.5 number and 23.8 number and 18.5 number and 22.0 number and 28.0 number,11.5 number and 8.8 number and 9.0 number and 7.3 number and 14.5 number and 14.3 number,17.5 number and 20.0 number and 16.5 number and 16.8 number and 12.0 number and 15.0 number,26.8 number and 18.3 number and 20.8 number and 21.8 number and 28.0 number,14.5 number and 18.8 number and 18.3 number and 16.3 number and 19.8 number and 15.0 number,0.007 ppm and 0.006616 ppm,8.0,8.1 and 8.4 and 8 and 7.6,48.7 lbs per tree and 50.4 lbs per tree
